The results in this text go back to article PMC9230573 (Frontiers in Pharmacology, 2022).

SMILES strings stand for the structures. Where a SMILES comes first, the peptide text is derived from it. Bridges are numbered along the chain shown (N, C = ends).

The experiment addresses human CaV2.2 (α1B, β3, α2δ1) (Homo sapiens, UniProt Q00975). The experiment is described as follows: cell-based.

Sequence of human CaV2.2 (α1B, β3, α2δ1) (Q00975 whole entry, looked up): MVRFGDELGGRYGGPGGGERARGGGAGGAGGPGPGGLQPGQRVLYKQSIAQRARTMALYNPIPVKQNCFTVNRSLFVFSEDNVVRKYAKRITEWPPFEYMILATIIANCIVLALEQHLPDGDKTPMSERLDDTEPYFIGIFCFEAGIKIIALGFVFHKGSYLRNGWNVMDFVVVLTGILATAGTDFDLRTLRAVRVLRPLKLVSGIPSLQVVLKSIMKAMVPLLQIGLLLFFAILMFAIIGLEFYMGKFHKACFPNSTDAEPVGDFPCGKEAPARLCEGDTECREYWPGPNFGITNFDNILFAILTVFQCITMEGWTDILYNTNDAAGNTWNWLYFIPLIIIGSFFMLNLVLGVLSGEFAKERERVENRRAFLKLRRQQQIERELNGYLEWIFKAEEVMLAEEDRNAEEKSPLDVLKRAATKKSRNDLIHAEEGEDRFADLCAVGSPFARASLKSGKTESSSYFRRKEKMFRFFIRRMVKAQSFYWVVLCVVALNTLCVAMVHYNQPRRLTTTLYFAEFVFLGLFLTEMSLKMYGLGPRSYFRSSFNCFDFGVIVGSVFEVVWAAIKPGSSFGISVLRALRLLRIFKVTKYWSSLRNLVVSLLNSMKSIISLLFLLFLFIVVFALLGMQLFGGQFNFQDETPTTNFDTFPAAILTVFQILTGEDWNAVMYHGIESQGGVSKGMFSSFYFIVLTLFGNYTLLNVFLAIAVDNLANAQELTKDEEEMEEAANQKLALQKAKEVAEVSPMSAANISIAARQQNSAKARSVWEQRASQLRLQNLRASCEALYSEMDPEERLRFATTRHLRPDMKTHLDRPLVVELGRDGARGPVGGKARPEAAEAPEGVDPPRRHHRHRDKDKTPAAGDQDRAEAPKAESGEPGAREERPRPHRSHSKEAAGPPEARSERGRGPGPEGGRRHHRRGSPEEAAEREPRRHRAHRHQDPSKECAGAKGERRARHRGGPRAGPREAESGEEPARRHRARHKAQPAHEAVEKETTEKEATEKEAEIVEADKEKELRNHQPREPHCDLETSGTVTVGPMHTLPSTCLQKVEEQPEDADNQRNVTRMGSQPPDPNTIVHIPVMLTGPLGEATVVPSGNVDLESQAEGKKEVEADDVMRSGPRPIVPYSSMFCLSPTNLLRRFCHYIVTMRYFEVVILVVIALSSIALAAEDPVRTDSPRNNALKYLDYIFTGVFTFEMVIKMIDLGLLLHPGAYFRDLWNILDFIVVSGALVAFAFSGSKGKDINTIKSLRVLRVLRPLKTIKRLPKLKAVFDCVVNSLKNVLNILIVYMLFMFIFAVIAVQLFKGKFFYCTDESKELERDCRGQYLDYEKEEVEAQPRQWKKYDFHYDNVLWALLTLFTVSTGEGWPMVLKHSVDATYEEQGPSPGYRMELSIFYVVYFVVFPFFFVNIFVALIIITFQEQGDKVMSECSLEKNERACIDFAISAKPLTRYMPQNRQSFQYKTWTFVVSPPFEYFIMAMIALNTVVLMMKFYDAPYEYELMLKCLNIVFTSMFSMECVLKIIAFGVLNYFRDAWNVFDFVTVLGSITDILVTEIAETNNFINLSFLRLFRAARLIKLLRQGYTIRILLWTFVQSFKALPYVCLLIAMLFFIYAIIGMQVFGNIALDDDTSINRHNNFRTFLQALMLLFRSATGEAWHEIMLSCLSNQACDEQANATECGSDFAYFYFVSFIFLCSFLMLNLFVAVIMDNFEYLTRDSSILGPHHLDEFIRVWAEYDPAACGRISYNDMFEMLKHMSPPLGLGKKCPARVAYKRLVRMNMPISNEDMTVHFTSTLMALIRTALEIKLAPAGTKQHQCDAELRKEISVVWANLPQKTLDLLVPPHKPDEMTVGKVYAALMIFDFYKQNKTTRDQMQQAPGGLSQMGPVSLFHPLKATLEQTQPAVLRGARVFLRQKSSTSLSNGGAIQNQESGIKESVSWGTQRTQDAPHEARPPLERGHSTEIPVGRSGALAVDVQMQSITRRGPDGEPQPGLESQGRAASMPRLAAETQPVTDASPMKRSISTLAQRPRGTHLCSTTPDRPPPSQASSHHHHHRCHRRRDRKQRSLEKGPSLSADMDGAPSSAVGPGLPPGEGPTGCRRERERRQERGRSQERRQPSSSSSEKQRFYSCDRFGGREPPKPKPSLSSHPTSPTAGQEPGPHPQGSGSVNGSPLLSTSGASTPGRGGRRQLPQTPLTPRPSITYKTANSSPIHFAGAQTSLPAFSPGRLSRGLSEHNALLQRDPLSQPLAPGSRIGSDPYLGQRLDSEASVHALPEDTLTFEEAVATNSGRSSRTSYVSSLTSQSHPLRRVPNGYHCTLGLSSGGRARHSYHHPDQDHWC

In general, IC50 refers to the midpoint of a concentration-inhibition curve. High values mean a need for much substance, low ones inhibition by little substance. As for `CC[C@H](C)[C@@H]1NC(=O)[C@@H]2CCCN2C(=O)[C@@H]2CSSC[C@H](NC(=O)[C@@H](N)CC(N)=O)C(=O)N[C@@H](CSSC[C@@H](C(N)=O)NC(=O)[C@H](CC(N)=O)NC(=O)[C@H](Cc3ccccc3)NC(=O)[C@H](CCCNC(=N)N)NC(=O)[C@H](CO)NC(=O)[C@H](Cc3ccc(O)cc3)NC(=O)[C@H](CC(=O)O)NC1=O)C(=O)N[C@@H](CCSC)C(=O)N[C@@H](Cc1ccccc1)C(=O)N[C@@H](Cc1c[nH]cn1)C(=O)N[C@@H]([C@@H](C)O)C(=O)N2` [Vt1.27] (H-NCCMFHTCPIDYSRFNC-NH2; disulfide 2-8, 3-17), the IC50 amounted to 398 nM; the “half-maximum inactivation (V0.5, inact)” value is −69.0 ± 1.0 mV; the “shift of half-maximum inactivation (V0.5, inact)” value turned out to be 3 mV; the “τoff (off kinetics of inhibition)” value was 2.7 ± 0.15 s. In addition, the “τon (on kinetics of inhibition)” value was 4.5 ± 0.48 s.
